Laboratory results as given in paper PMC10065799, “High-throughput profiling of sequence recognition by tyrosine kinases and SH2 domains using bacterial peptide display” (eLife, 2023).

What was measured:
c-Src kinase domain [1] = target: T1, c-Src kinase domain (Homo sapiens, UniProt P12931); experiment: RP-HPLC assay to measure peptide phosphorylation kinetics; assay type: biochemical; conditions: purified peptide substrate
c-Src kinase domain [2] = target: T1, c-Src kinase domain; experiment: pTyr-Var library bacterial peptide display kinase screen (enrichment scores); assay type: biochemical; conditions: sheet "Src"; effect of the variant peptide relative to its reference peptide in the pTyr-Var library screen;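 further: log2 fold change in enrichment of variant over reference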
FGFR1 kinase domain = experiment: LC-MS assay of intact SHP2 protein phosphorylation; assay type: biochemical, human; conditions: SHP2 10 μM, kinase 1 μM, 1 hr, 37 °C, 2 to 3 measurements
Protocol: (§1) The same protocol used to express and purify SH2 domains, excluding co-expression of BirA and addition of biotin, was applied to the expression and purification of the SHP2 variants.
(§2) To pre-activate the kinases, 1 μM of each purified kinase domain was preincubated at 37 °C for 30 min in the same buffer conditions used in the kinase domain peptide display screen, with 1 mM ATP. The reaction of the kinase with SHP2 was initiated with the addition of 10 μM SHP2, and the mixture was incubated in 37 °C for 1 hr. To terminate the reaction, the mixture was quenched with 200 mM EDTA. The reaction mixture was diluted 3:2 in water and injected onto a BEH C8 column (Waters) on a UPLC-MS system (Xevo QToF, Waters). Reverse-phase liquid chromatography was carried out at 0.3 mL/min with solvents A (H2O, 0.1% (v/v) formic acid) and B (acetonitrile, 0.1% (v/v) formic acid). Proteins were eluted over a gradient of 5–95% B for 8.5 min. The protein peak on the chromatogram was deconvoluted using the MaxEnt1 algorithm from 32,000–65,000 Da with a resolution of 1 Da/channel over 30 iterations. Peaks were chosen according to the theoretical MW of the protein within a range of 5 Da, and integrated for the signal intensity.

Fyn kinase domain = experiment: LC-MS assay of intact SHP2 protein phosphorylation; assay type: biochemical, human; conditions: SHP2 10 μM, kinase 1 μM, 1 hr, 37 °C, 2 to 3 measurements
Protocol: as §1, §2

Ac-WDLPEYSFKDP-NH2 [ITGA3_Y237_S235P_YF, pTyr-Var library variant phosphosite peptide]
Phosphorylation Rate (c-Src kinase domain [1]): 0.153 s⁻¹ | Screen (c-Src kinase domain [2]): -1.08

B1: SHP2 D61N: human full-length SHP2 (residues 1–526; C459E, D61N) (protein, UniProt Q06124 2-593, looked up, variant C459E D61N)
Tyrosine-protein phosphatase …: TSRRWFHPNITGVEAENLLLTRGVDGSFLARPSKSNPGDFTLSVRRNGAVTHIKIQNTGNYYDLYGGEKFATLAELVQYYMEHHGQLKEKNGDVIELKYPLNCADPTSERWFHGHLSGKEAEKLLTEKGKHGSFLVRESQSHPGDFVLSVRTGDDKGESNDGKSKVTHVMIRCQELKYDVGGGERFDSLTDLVEHYKKNPMVETLGTVLQLKQPLNTTRINAAEIESRVRELSKLAETTDKVKQGFWEEFETLQQQECKLLYSRKEGQRQENKNKNRYKNILPFDHTRVVLHDGDPNEPVSDYINANIIMPEFETKCNNSKPKKSYIATQGCLQNTVNDFWRMVFQENSRVIVMTTKEVERGKSKCVKYWPDEYALKEYGVMRVRNVKESAAHDYTLRELKLSKVGQGNTERTVWQYHFRTWPDHGVPSDPGGVLDFLEEVHHKQESIMDAGPVVVHESAGIGRTGTFIVIDILIDIIREKGVDCDIDVPKTIQMVRSQRSGMVQTEAQYRFIYMAVQHYIETLQRRIEEEQKSKRKGHEYTNIKYSLADQTSGDQSPLPPCTPTPPCAEMREDSARVYENVGLMQQQKSFR
phosphorylation of intact SHP2 by FGFR1 (FGFR1 kinase domain): dramatically enhanced phosphorylation | phosphorylation of intact SHP2 by Fyn (Fyn kinase domain): dramatically enhanced phosphorylation
